Where a SMILES comes first, the peptide text is derived from it. The star is where a group is joined. Cbz = O=C(OCc1ccccc1)*; CH2F = FC*
Assays:
Assay type in all cases: cell-based, human
BJAB or Colo205 cells = experiment: Immunoblot for cleavage of clathrin-pathway components after DNA-damaging agents
Method: BJAB or Colo205 cells were treated with vinblastine, or adriamycin for the indicated time and analyzed by immunoblot as in FIG. 1.
Human colorectal adenocarcinoma Colo205 cells human B cell lymphoma BJAB cells and human T cell carcinoma Jurkat wild type cells (A3 clone), FADD-deficient (E1) and caspase-8-deficient (I9.3) were cultured in RPMI 1640+10% fetal bovine serum (FBS)+2 mM glutamine+1000 U/ml Penicillin-Streptomycin (Life Technologies). Human cervical carcinoma HeLa-M cells human breast adenocarcinoma MCF7 and human colorectal adenocarcinomas HCT15, HCT8, SW948, Colo320, human fibrosarcoma HT180 (ATCC), HCT116 Bax(−/−), HCT116 Bax(+/−) were grown in 50:50 Dulbecco's modified Eagle's and FK12 medium+10% FBS+1000 U/ml Penicillin-Streptomycin. cDNA clones encoding temperature-sensitive dynamins were the G273D mutant and dominant negative K44A mutant dynamin-1 (Dyn^G273D and Dyn^K44A, respectively). Dyn^G273D was expressed from pHUSH-ProEx, a single retroviral plasmid tetracycline-inducible expression system constructed at Genentech. […]

[1] = system: AP2α, AP1/2β, clathrin heavy chain (CHC), dynamin; experiment: Immunoblot for cleavage of clathrin-dependent endocytosis machinery and caspases in cell lysates
Method: (b) Colo205 cells were treated as in (a) and analyzed by immunoblot for processing of specific components of various types of clathrin-associated endocytic trafficking.
Open arrows indicate cleavage products and solid arrows indicate full-length proteins.
(c) BJAB cells were treated with crosslinked Apo2L/TRAIL and processing of dynamin was determined by immunoblot.
The cells were analyzed by immunoblot for processing of caspase-8, caspase-9, caspase-3, and AP2α.
Human colorectal adenocarcinoma Colo205 cells human B cell lymphoma BJAB cells and human T cell carcinoma Jurkat wild type cells (A3 clone), FADD-deficient (E1) and caspase-8-deficient (I9.3) were cultured in RPMI 1640+10% fetal bovine serum (FBS)+2 mM glutamine+1000 U/ml Penicillin-Streptomycin (Life Technologies). Human cervical carcinoma HeLa-M cells human breast adenocarcinoma MCF7 and human colorectal adenocarcinomas HCT15, HCT8, SW948, Colo320, human fibrosarcoma HT180 (ATCC), HCT116 Bax(−/−), HCT116 Bax(+/−) were grown in 50:50 Dulbecco's modified Eagle's and FK12 medium+10% FBS+1000 U/ml Penicillin-Streptomycin. cDNA clones encoding temperature-sensitive dynamins were the G273D mutant and dominant negative K44A mutant dynamin-1 (Dyn^G273D and Dyn^K44A, respectively). Dyn^G273D was expressed from pHUSH-ProEx, a single retroviral plasmid tetracycline-inducible expression system constructed at Genentech. The cDNA was first cloned into a shuttle plasmid containing a CMV enhancer-promoter sequence with two copies of the tetracycline operator TetO2, then transferred via in vitro phage lamda-based recombination, or Gateway® technology (Invitrogen, Carlsbad), to a Moloney murine leukemia virus backbone vector in which the wild type Tet repressor is driven by a separate β-actin promoter and followed by an internal ribosomal entry sequence and puromycin selection cassette. Dyn^K44A was expressed from the 2-vector tetracycline-inducible retroviral expression system, pRevTet-On/pRev-Tre (Clontech), using serial infections. Retroviral vectors were transfected into Phoenix amphotropic Moloney Murine Leukemia Virus packaging cells using Lipofectamine 2000 […]. Retroviral particles were harvested and used in HeLa-M and BJAB cell infections as described previously (Simpson et al. J Cell Biol 137, 835-45, 1997). Dyn^G273 infected cells were puromycin selected (2-3 μg/ml) for 1-2 weeks and cloned either by manually picking individual HeLa-M colonies or by FACS sorting of resistant BJAB cells (gated for exclusion of propidium iodide) and single cell seeding in 96-well cell culture plates using an EPICS ELITE-ESP equipped with an Autoclone device (Coulter, Hialeah, Fla.). Cell clones were screened for uniformity of doxycycline inducible dynamin-1 expression by immunofluorescence microscopy. Dyn^K44A-infected cells were hygromycin B (400 μg/ml) and G418 (1 mg/ml) selected for 1-2 weeks. Induction with doxycycline (1 μg/ml) was performed at 32° C. for 72 hr as described previously (Damke et al. J Cell Biol 131, 69-80 1995). Vincristine sulfate (#T-117), Adriamycin.HCL (GR-319) were purchased from Biomol, tetracycline-free FBS from Hyclone, Puromycin from Clontech and Doxycyclin from Sigma. zVAD-fmk (asN-benzyloxycarbonyl-Val-Ala-Asp-fluoromethylketone) was obtained from MD Biosciences (#FK-009). […]

BJAB and Colo205 cells = experiment: Transferrin (Tf) endocytosis rate by flow cytometry; settings: BJAB cells, zVAD-fmk 30 min then 4 hr crosslinked Apo2L/TRAIL
Method: The cells were then equilibrated on ice for 30 min with Alexa-647-conjugated Tf (^647TF) and uptake at 37° C. was measured by flow cytometry. Each endocytosis rate was derived from the slope of the initial linear phase of a 4 min uptake kinetics plot (a, inset). […] Rates were normalized to the DMSO treated sample (±SEM).
Sedimented cells were resuspended in cold 2% paraformaldehyde/PBS and mean fluorescence intensity of 10,000 cells quantified with a Coulter Epics Elite-ESP flow cytometer (Hialeah, Fla.). Endocytic rates were determined from linear slopes of steady-state internal/surface plots (see, e.g., Wiley, H. S. et. al, J Biol Chem 257, 4222-9 (1982)). For temperature-shift experiments, ice binding incubations were avoided. Instead, cells were preconditioned for 20 min and maintained at 30° C. or 38° C. in binding medium, incubated an additional 0 (control) or 20 min with ^647Tf, chilled on ice for 30 min, and processed for flow cytometry to determine internal/surface ^647Tf ratios.

DISC = DISC immunoprecipitation; settings: BJAB cells chilled on ice
Method: (a) BJAB cells were equilibrated with ^647Tf on ice, incubated for the indicated uptake interval at 37° C. or on ice, then fluorescence quantified by flow cytometry. […] DISC-associated FADD and caspase-8 were visualized by immunoblot. (c, d) Dyn^G273D-transduced BJAB cells were treated with buffer (No Dox) or doxycyline (Dox) and shifted to 38° C. for 20 min to inactivate dynamin. The cells were treated with crosslinked Apo2L/TRAIL for the indicated amounts of time and the DISC was immunoprecipitated. DISC-associated FADD and caspase-8 were visualized by immunoblot (c) or DISC-associated caspase-8 activity was measured as described previously (Sharp et al. J Biol Chem 280, 19401-409, 2005).
BJAB cells (1×10^7 per time point) were treated with Flag-Apo2L/TRAIL cross-linked by anti-FLAG M2 Abs, collected, lysed, immunoprecipitated and the DISC was analyzed as described (see, e.g., Kischkel, F. C. et al., Immunity 12, 611-20 (2000)).

COc1cccc2c1C(=O)c1c(O)c3c(c(O)c1C2=O)C[C@@](O)(C(=O)CO)C[C@@H]3O[C@H]1C[C@H](N)[C@H](O)[C@H](C)O1 [adriamycin]
Cleavage of components of the clathrin machinery (BJAB or Colo205 cells): induced cleavage of components of the clathrin machinery, albeit with much slower kinetics than DR ligands

CC[C@]1(O)C[C@@H]2CN(CCc3c([nH]c4ccccc34)[C@@](C(=O)OC)(c3cc4c(cc3OC)N(C)[C@H]3[C@@](O)(C(=O)OC)[C@H](OC(C)=O)[C@]5(CC)C=CCN6CC[C@]43[C@@H]65)C2)C1 [vinblastine]
Cleavage of components of the clathrin machinery (BJAB or Colo205 cells): induced cleavage of components of the clathrin machinery, albeit with much slower kinetics than DR ligands

CC(C)[C@H](NC(=O)OCc1ccccc1)C(=O)N[C@@H](C)C(=O)N[C@@H](CC(=O)O)C(=O)CF [zVAD-fmk, N-benzyloxycarbonyl-Val-Ala-Asp-fluoromethylketone, reference compound] (Cbz-Val-Ala-Asp-CH2F)
Effect of pretreatment on ligand-induced cleavage of AP2α and CHC ([1]; BJAB cells, zVAD-fmk 20 μM 30 min then crosslinked Apo2L/TRAIL 1 μg/mL): prevented cleavage of AP2α and CHC
Effect of pretreatment on Apo2L/TRAIL inhibition of Tf endocytosis (BJAB and Colo205 cells): substantially reversed this inhibition

B1: FasL: Flag-tagged FasL, crosslinked; SEQ ID NO: 9 (protein, listed as Homo sapiens)
chain: MQQPFNYPYPQIYWVDSSASSPWAPPGTVLPCPTSVPRRPGQRRPPPPPPPPPLPPPPPPPPLPPLPLPPLKKRGNHSTGLCLLVMFFMVLVALVGLGLGMFQLFHLQKELAELRESTSQMHTASSLEKQIGHPSPPPEKKELRKVAHLTGKSNSRSMPLEWEDTYGIVLLSGVKYKKGGLVINETGLYFVYSKVYFRGQSCNNLPLSHKVYMRNSKYPQDLVMMEGKMMSYCTTGQMWARSSYLGAVFNLTSADHLYVNVSELSLVNFEESQTFFGLYKL
modifications: Flag tag, crosslinked
Cleavage of AP2α and CHC ([1]; BJAB cells, crosslinked ligand): stimulated cleavage of AP2α and CHC in BJAB cells comparably to Apo2L/TRAIL
Processing of AP2α and CHC ([1]; caspase-8-deficient or FADD-deficient mutant Jurkat cell lines): neither ligand stimulated processing of these targets
Cleavage of AP2α and CHC ([1]; wt Jurkat T cells): induced cleavage of AP2α and CHC
DISC assembly with Tf endocytosis blocked (DISC): still recruited FADD and caspase-8 to their respective receptors and processed caspase-8

— patent US8198033B2, “Methods and materials for observing apoptosis” (Genentech, Inc., priority 2006, dated 2012)
